In patent publication US10087195B2, “Certain protein kinase inhibitors” (Shanghai Fochon Pharmaceutical Co., Ltd., priority 2014, dated 2018):

Legend:
COLO-205 cells = test: COLO-205 cell proliferation assay (MTS), mechanism-based assay for CDK4/6 inhibition; settings: Homo sapiens, compound treatment 48 h, MTS absorbance 490 nm, read-out: COLO205 IC50
Description: To investigate whether a compound is able to inhibit the activity of CDK4/6 in cells, a mechanism-based assay using COLO-205 cell was developed. In this assay, inhibition of CDK4/6 was detected by the inhibition of COLO-205 cells proliferation. COLO-205 cells were cultured in culture flasks to 40-80% confluence in RPMI-1640 plus 10% fetal bovine serum. Cells were collected and plated onto 96-well plates at desired cell density (2000 cells/well). Plates were incubated overnight at 37° C., with 5% CO2 to adhere. Compounds were added to the plates, the final compound concentrations were […], 123.5, 41.2, 13.7, 4.6 and 1.5 nM. Place plates at 37° C., with 5% CO2 for 48 h. After removing the medium, 20 μl MTS/100 μl medium mixture solution were added to each well and incubate the plates for exactly 1.5 hours. Stop the reaction by adding 25 μl 10% SDS per well. Measure absorbance at 490 nm and 650 nm (reference wavelength). IC50 was calculated using GraphPad Prism 5.0.

BE(2)-C Cells = test: BE(2)-C cell proliferation assay (MTS); assay type: cell-based; settings: Homo sapiens, compound treatment 72 hours
Description: BE(2)-C Cells were plated in 96-well plates with 150 μl culture medium at cell density of 5000 cells/well. Compounds dilution: 20 mM stock solution of all compounds in DMSO. On the day of treatment, compounds were fresh diluted from the stock solution to a working solution (4× of final concentrations) in culture medium. 50 μl of compound mixtures were added to duplicate wells along with 150 μl of cells. 24 hours after BE(2)-C cells were plated, testing compounds were added. Cell proliferation was measured by MTS assay following manufacturer's instruction after compound treatment for 72 hours.

| IC50 (COLO-205 cells) [µM] | SMILES | IC50 (BE(2)-C Cells) [µM] |
| --- | --- | --- |
| 0.339 | CN1CCN(c2ccc(Nc3ncc4sc(C(=O)N(C)C)c(C5CCCC5)c4n3)nc2)CC1 [Example 2, 7-Cyclopentyl-N,N-dimethyl-2-(5-(4-methylpiperazin-1-yl)pyridin-2-ylamino)thieno[3,2-d]pyrimidine-6-carboxamide] | 0.0241 |
| 0.855 | CN1CCc2nc(Nc3ncc4sc(C(=O)N(C)C)c([C@H]5CC[C@H](C)CC5)c4n3)ccc2C1 [Example 88, N,N-dimethyl-2-((6-methyl-5,6,7,8-tetrahydro-1,6-naphthyridin-2-yl)amino)-7-((1r,4r)-4-methylcyclohexyl)thieno[3,2-d]pyrimidine-6-carboxamide] |  |
| 0.624 | NC(=O)c1sc2cnc(Nc3ccc(N4CCNCC4)cn3)nc2c1C1CCCC1 [Example 73, 7-cyclopentyl-2-((5-(piperazin-1-yl)pyridin-2-yl)amino)thieno[3,2-d]pyrimidine-6-carboxamide] |  |
| 0.517 | CN(C)C(=O)c1cc2cnc(Nc3ccc(N4CCNCC4)cn3)nn2c1C1CCCC1 [Example 5, 7-cyclopentyl-N,N-dimethyl-2-((5-(piperazin-1-yl)pyridin-2-yl)amino)pyrrolo[2,1-f][1,2,4]triazine-6-carboxamide] | 0.601 |
| 0.45 | CN(C)C(=O)c1sc2cnc(Nc3ccc4c(n3)CCNC4)nc2c1[C@H]1CC[C@H](C)CC1 [Example 87, N,N-dimethyl-7-((1r,4r)-4-methylcyclohexyl)-2-((5,6,7,8-tetrahydro-1,6-naphthyridin-2-yl)amino)thieno[3,2-d]pyrimidine-6-carboxamide] |  |
| 0.27 | CN(C)C(=O)c1sc2cnc(Nc3ccc4c(n3)CCN(C(=O)CO)C4)nc2c1[C@H]1CC[C@H](C)CC1 [Example 90, 2-((6-(2-hydroxyacetyl)-5,6,7,8-tetrahydro-1,6-naphthyridin-2-yl)amino)-N,N-dimethyl-7-((1r,4r)-4-methylcyclohexyl)thieno[3,2-d]pyrimidine-6-carboxamide] |  |
| 1.11 | CN(C)C(=O)c1sc2cnc(Nc3ccc(N4CCNCC4)cn3)nc2c1C1CCCC1 [Example 1, 7-Cyclopentyl-N,N-dimethyl-2-(5-(piperazin-1-yl)pyridin-2-ylamino)thieno[3,2-d]pyrimidine-6-carboxamide] | 0.0385 |
| 0.223 | CN(C)C(=O)c1sc2cnc(Nc3ccc(N4CCNCC4)nn3)nc2c1[C@H]1CC[C@H](C)CC1 [Example 91, N,N-dimethyl-7-((1r,4r)-4-methylcyclohexyl)-2-((6-(piperazin-1-yl)pyridazin-3-yl)amino)thieno[3,2-d]pyrimidine-6-carboxamide] |  |
| 0.389 | CC(=O)N1CCc2nc(Nc3ncc4sc(C(=O)N(C)C)c([C@H]5CC[C@H](C)CC5)c4n3)ccc2C1 [Example 89, 2-((6-acetyl-5,6,7,8-tetrahydro-1,6-naphthyridin-2-yl)amino)-N,N-dimethyl-7-((1r,4r)-4-methylcyclohexyl)thieno[3,2-d]pyrimidine-6-carboxamide] |  |
| 0.711 | CN(C)C(=O)c1oc2cnc(Nc3ccc(N4CCNCC4)cn3)nc2c1C1CCCC1 [Example 7, 7-cyclopentyl-N,N-dimethyl-2-((5-(piperazin-1-yl)pyridin-2-yl)amino)furo[3,2-d]pyrimidine-6-carboxamide] |  |
